From article PMC10610090, “The Synthetic Peptide GA-Hecate and Its Analogs Inhibit Multiple Steps of the Chikungunya Virus Infection Cycle In Vitro” (Pharmaceuticals, 2023)
Like-named read-outs stand apart in the source and are kept apart here. Peptide text beside a SMILES is read from it. * marks the point of attachment. Galloyl = O=C(c1cc(O)c(O)c(O)c1)*; X1 = CN(C)c1ccc(C(=O)*)cc1

Experiments:
[1] = MTT cytotoxicity assay in BHK-21 cells; type: cell-based; settings: hamster
Method: (§1) Cytotoxicity in BHK-21 and Huh-7 cells was evaluated using the 3-(4,5-dimethylthiazol-2-yl)-2,5-diphenyltetrazolium bromide (MTT) assay as previously described. The cells (5 × 10^3 per well) were seeded in 96-well culture plates (TPP, Trasadingen, Switzerland). After 24 h, the cells were incubated with the peptides at concentrations of 1.6, 3.1, 6.3, 12.5, 25, 50, and 100 µM for 24 h. Then, the medium containing the peptides was removed, and 100 µL of MTT (Sigma-Aldrich, St. Louis, MO, USA) diluted in DMEM (Cultilab, Campinas, SP, Brazil) (1 mg/mL) was added to each well of the plate (1 mg/mL). After 30 min of incubation at 37 °C, the medium containing MTT (Sigma-Aldrich, St. Louis, MO, USA) was removed, and 100 µL of dimethylsulfoxide (DMSO, Synth, Diadema, SP, Brazil) was added to the cells. The plate was agitated at 200 rpm. After 5 min, the absorbance was measured at a wavelength of 572 nm on a plate reader (FLUOstar Omega/BMG LABTECH, Ortenberg, Germany). The CC50 values were calculated using GraphPad Prism 5.0 software (GraphPad Software, San Diego, CA, USA).
(§2) All the described experiments were performed in three independent events, each of which was carried out in three (cytotoxicity) and four (antiviral activity) technical replicates. The CC50 and EC50 values were determined by nonlinear regression of the dose-response curves (Log [peptide] × response). The statistical significance was determined employing the paired Student’s t-test for parametric results and the Mann–Whitney test for nonparametric data using GraphPad Prism 5.0 software (GraphPad Software, San Diego, CA, USA). A p-value < 0.05 was considered statistically significant.

CHIKV-NLuc = type: cell-based, Chikungunya virus; settings: CHIKV-NLuc MOI 0.1, 16 h, NLuc activity
Method: Measurement of the activity of the virus-encoded NanoLuciferase (NLuc) reporter was used to evaluate the antiviral activity of the peptides against CHIKV-NLuc at the end of every assay with the peptides. Cells were infected with CHIKV-NLuc, and the supernatant was aspirated 16 h post-infection (h.p.i.), and each well of the plate was washed with PBS solution. Then, 30 µL of Renilla Luciferase Assay Lysis Buffer (Promega, Madison, WI, USA) was added to the cells. After 30 min, 50 μL of substrate for Renilla Luciferase (Renilla Luciferase assay reagent, Promega, Madison, WI, USA) was automatically injected in the wells into the plate reader (FLUOstar Omega/BMG LABTECH, Ortenberg, Germany), and the light intensity reading was performed. The values obtained are shown as the percentage of protein NLuc activity in the control (samples treated with sterile water).
The effects of the peptides on the CHIKV infectious cycle were analyzed as previously described. BHK-21 and Huh-7 cells (1 × 10^4 per well) were seeded in 96-well white culture plates (Greiner Bio-One, Americana, SP, Brazil) for 24 h. Then, the virus at an MOI of 0.1 and the peptides at the MNTC were simultaneously added to the cells. The plate was incubated at 37 °C for 16 h, and then antiviral activity against CHIKV was evaluated through NLuc activity. […] The SI was calculated using the ratio CC50/EC50.
as §2

[2] = MTT cytotoxicity assay in Huh-7 cells; type: cell-based; settings: human
Method: as §1, §2

BHK-21 and Huh-7 cells = assay: MTT cytotoxicity, maximum nontoxic concentration over both cell lines; type: cell-based, hamster; human
Method: The cytotoxicity of the peptides GA-Hecate, PSSct1905, and PSSct1910 was evaluated in baby hamster kidney fibroblast cells (BHK-21) and human hepatocarcinoma epithelial cells (Huh-7). We defined the maximum nontoxic concentration (MNTC), expressed in µM, as the highest peptide concentration that kept at least 80% of BHK-21 and Huh-7 cells viable within 24 h.
as §1, with “The plate was agitated at 200 rpm.” left out

SMILES	CC50 at 24 h [1] [µM]	EC50 (CHIKV-NLuc; BHK-21 cells) [µM]	EC50 (CHIKV-NLuc; Huh-7 cells) [µM]	CC50 at 24 h [2] [µM]	increase in the CC50 value compared to GA-Hecate (BHK-21 and Huh-7 cells; more prominent in BHK-21 cells)	MNTC (maximum nontoxic concentration) (BHK-21 and Huh-7 cells; highest concentration keeping at least 80% of BHK-21 and Huh-7 cells viable within 24 h, MTT) [µM]
CC(C)C[C@H](NC(=O)[C@H](C)NC(=O)[C@H](CCCCN)NC(=O)[C@H](CCCCN)NC(=O)[C@H](CC(C)C)NC(=O)[C@H](C)NC(=O)[C@H](CCCCN)NC(=O)[C@H](CCCCN)NC(=O)[C@H](CC(C)C)NC(=O)[C@H](CCCCN)NC(=O)[C@H](CCCCN)NC(=O)[C@H](CC(C)C)NC(=O)[C@H](C)NC(=O)[C@H](CCCCN)NC(=O)[C@H](CCCCN)NC(=O)[C@H](CC(C)C)NC(=O)[C@H](C)NC(=O)[C@H](CCCCN)NC(=O)[C@H](CC(C)C)NC(=O)[C@H](C)NC(=O)[C@H](CC(C)C)NC(=O)[C@H](C)NC(=O)[C@H](Cc1ccccc1)NC(=O)c1cc(O)c(O)c(O)c1)C(N)=O [GA-Hecate] (Galloyl-FALALKALKKALKKLKKALKKAL-NH2)	23.3	5.7	4.5	221		
CC(C)C[C@H](NC(=O)[C@H](CCCCN)NC(=O)[C@H](CCCCN)NC(=O)[C@H](CC(C)C)NC(=O)[C@H](C)NC(=O)[C@H](CCCCN)NC(=O)[C@H](CCCCN)NC(=O)[C@H](CC(C)C)NC(=O)[C@H](C)NC(=O)[C@H](CCCCN)NC(=O)[C@H](CC(C)C)NC(=O)[C@H](C)NC(=O)[C@H](CC(C)C)NC(=O)[C@H](C)NC(=O)[C@H](Cc1ccccc1)NC(=O)c1cc(O)c(O)c(O)c1)C(=O)O [PSSct1905, GA-FALALKALKKALKKL-COOH] (Galloyl-FALALKALKKALKKL-OH)	56.5	8.4	7.1	205	approximately 2 fold	
CC(C)C[C@H](NC(=O)[C@H](C)NC(=O)[C@H](CCCCN)NC(=O)[C@H](CCCCN)NC(=O)[C@H](CC(C)C)NC(=O)[C@H](C)NC(=O)[C@H](CCCCN)NC(=O)[C@H](CCCCN)NC(=O)[C@H](CC(C)C)NC(=O)[C@H](CCCCN)NC(=O)[C@H](CCCCN)NC(=O)[C@H](CC(C)C)NC(=O)[C@H](C)NC(=O)[C@H](CCCCN)NC(=O)[C@H](CCCCN)NC(=O)[C@H](CC(C)C)NC(=O)[C@H](C)NC(=O)[C@H](CCCCN)NC(=O)[C@H](CC(C)C)NC(=O)[C@H](C)NC(=O)[C@H](CC(C)C)NC(=O)[C@H](C)NC(=O)[C@H](Cc1ccccc1)NC(=O)c1ccc(N(C)C)cc1)C(N)=O [PSSct1910] (X1-FALALKALKKALKKLKKALKKAL-NH2)	5.4	1.1	0.2	7.7		1.6
